Each block holds one molecule with its values, some of them ahead of it.
Experiments:
Type in all cases: physicochemical
[1] = Differential scanning calorimetry, enthalpy of evaporation; settings: DSC 20° C. to 300° C., 5° C./minute
Procedure: To monitor the enthalpy of evaporation differential scanning calorimetry was used. The reason for these measurements was to determine the cohesion forces between N-formyl morpholine and propylene carbonate. The mixtures (N-formyl morpholine/propylene carbonate in different ratio) were scanned from 20° C. to 300° C. with a temperature increase of 5° C./minute, using a DSC1 calorimeter from Mettler Toledo with STARe software.

[2] = Dilution of Amicarbazone formulation in water, ocular inspection; set-up: key: +: No crystals; −: Permanent crystals; settings: 100 g/L diluted to 7 g/L
Procedure: The co-solvents used were propylene carbonate (PC), dimethylformamide (DMF) and ethyl lactate (EL). The amount of each co solvent, in % by weight of the total weight of morpholine and co-solvent, can be seen in table 2. The solutions were diluted in local tap water to an end concentration of 7 g/L and the dilution was judged by ocular inspection with the naked eye, and in the table below the following is used: • + No crystals • − Permanent crystals

[3] = Solubility in acyl morpholines; settings: 23° C.
Procedure: Various agriculturally active ingredients were dissolved in N-formyl morpholine, N-acetyl morpholine and N-propionyl morpholine in order to evaluate the solubility of the active ingredients in the solvents. This was done by adding the active ingredient to a beaker and thereafter adding the solvent until a clear solution was obtained. The solutions were continually stirred at a temperature of 23° C. during the experiments. When everything had been dissolved, the beakers were left without stirring for 24 h to see if the solution was stable (i.e. no crystallization).

SMILES: CC1COC(=O)O1 (centres unmarked) [0:100, propylene carbonate]
Enthalpy of evaporation [1]: 392 J/g

SMILES: COc1c(Cl)ccc(Cl)c1C(=O)O [Dicamba]
Dissolution of active ingredient into N-acetyl morpholine (NAM) [3]: >100 grams of active ingredient in 100 g solvent | Dissolution of active ingredient into N-formyl morpholine (NFM) [3]: >100 grams of active ingredient in 100 g solvent | Dissolution of active ingredient into N-propionyl morpholine (NPM) [3]: >100 grams of active ingredient in 100 g solvent

SMILES: CC1(C)CCC(Cc2ccc(Cl)cc2)C1(O)Cn1cncn1 (centres unmarked) [Metconazole]
Dissolution of active ingredient into N-acetyl morpholine (NAM) [3]: >25 grams of active ingredient in 100 g solvent | Dissolution of active ingredient into N-formyl morpholine (NFM) [3]: >25 grams of active ingredient in 100 g solvent | Dissolution of active ingredient into N-propionyl morpholine (NPM) [3]: >25 grams of active ingredient in 100 g solvent

Other lines, results leading:

Enthalpy of evaporation [1]: 382 J/g
SMILES: O=CN1CCOCC1 [100:0, 4-formyl morpholine]

Crystallization upon dilution in water ([2]; NAM, 0% DMF): − | Crystallization upon dilution in water ([2]; NAM, 0% EL): − | Crystallization upon dilution in water ([2]; NAM, 0% PC): − | Crystallization upon dilution in water ([2]; NAM, 5% DMF): − | Crystallization upon dilution in water ([2]; NAM, 5% EL): − | Crystallization upon dilution in water ([2]; NAM, 5% PC): − | Crystallization upon dilution in water ([2]; NAM, 10% DMF): − | Crystallization upon dilution in water ([2]; NAM, 10% EL): − | Crystallization upon dilution in water ([2]; NAM, 10% PC): − | Crystallization upon dilution in water ([2]; NAM, 20% DMF): − | Crystallization upon dilution in water ([2]; NAM, 20% EL): − | Crystallization upon dilution in water ([2]; NAM, 20% PC): − | Crystallization upon dilution in water ([2]; NAM, 30% DMF): − | Crystallization upon dilution in water ([2]; NAM, 30% EL): − | Crystallization upon dilution in water ([2]; NAM, 30% PC): − | Crystallization upon dilution in water ([2]; NAM, 50% DMF): − | Crystallization upon dilution in water ([2]; NAM, 50% EL): − | Crystallization upon dilution in water ([2]; NAM, 50% PC): − | Crystallization upon dilution in water ([2]; NAM, 95% DMF): + | Crystallization upon dilution in water ([2]; NAM, 95% EL): − | Crystallization upon dilution in water ([2]; NAM, 95% PC): − | Crystallization upon dilution in water ([2]; NFM, 0% DMF): − | Crystallization upon dilution in water ([2]; NFM, 0% EL): − | Crystallization upon dilution in water ([2]; NFM, 0% PC): − | Crystallization upon dilution in water ([2]; NFM, 5% DMF): − | Crystallization upon dilution in water ([2]; NFM, 5% EL): − | Crystallization upon dilution in water ([2]; NFM, 5% PC): − | Crystallization upon dilution in water ([2]; NFM, 10% DMF): − | Crystallization upon dilution in water ([2]; NFM, 10% EL): − | Crystallization upon dilution in water ([2]; NFM, 10% PC): − | Crystallization upon dilution in water ([2]; NFM, 20% DMF): − | Crystallization upon dilution in water ([2]; NFM, 20% EL): − | Crystallization upon dilution in water ([2]; NFM, 20% PC): + | Crystallization upon dilution in water ([2]; NFM, 30% DMF): − | Crystallization upon dilution in water ([2]; NFM, 30% EL): − | Crystallization upon dilution in water ([2]; NFM, 30% PC): − | Crystallization upon dilution in water ([2]; NFM, 50% DMF): − | Crystallization upon dilution in water ([2]; NFM, 50% EL): − | Crystallization upon dilution in water ([2]; NFM, 50% PC): − | Crystallization upon dilution in water ([2]; NFM, 95% DMF): + | Crystallization upon dilution in water ([2]; NFM, 95% EL): − | Crystallization upon dilution in water ([2]; NFM, 95% PC): −
SMILES: CC(C)c1nn(C(=O)NC(C)(C)C)c(=O)n1N [Amicarbazone]
